{
  "source": "paper PMC8596534",
  "about": "“Pyridine substituted BODIPYs: synthesis, characterization and cholinesterease, α-glucosidase inhibitory, DNA hydrolytic cleavage effects” (Turkish Journal of Chemistry, 2021)",
  "key": {"[1]": {"biological_target": "T1, butyrylcholinesterase from equine serum (BuChE) (Equus caballus, UniProt P81908)", "T1 construct": "butyrylcholinesterase from equine serum (BuChE); from tissue; host or cells: equine serum", "T1 sequence (P81908 whole entry)": "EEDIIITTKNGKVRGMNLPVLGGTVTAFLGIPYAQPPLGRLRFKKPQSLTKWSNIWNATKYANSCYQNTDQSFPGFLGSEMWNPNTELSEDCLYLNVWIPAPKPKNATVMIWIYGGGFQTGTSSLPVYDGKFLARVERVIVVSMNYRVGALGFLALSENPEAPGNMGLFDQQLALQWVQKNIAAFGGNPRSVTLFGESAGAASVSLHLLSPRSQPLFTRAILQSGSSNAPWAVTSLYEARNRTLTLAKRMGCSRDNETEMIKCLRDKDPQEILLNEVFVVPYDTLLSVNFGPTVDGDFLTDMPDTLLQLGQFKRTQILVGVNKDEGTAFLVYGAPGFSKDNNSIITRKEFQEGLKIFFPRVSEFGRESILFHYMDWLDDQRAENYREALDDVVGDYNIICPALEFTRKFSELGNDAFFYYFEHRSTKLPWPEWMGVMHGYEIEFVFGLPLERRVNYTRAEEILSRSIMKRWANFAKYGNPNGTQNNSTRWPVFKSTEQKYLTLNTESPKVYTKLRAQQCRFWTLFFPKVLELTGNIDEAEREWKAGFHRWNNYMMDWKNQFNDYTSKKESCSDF", "experiment": "BuChE inhibition", "format": "biochemical", "description": "(§1) The materials, equipment, AChE, BuChE, α-glucosidase inhibitory, and DNA hydrolytic cleavage actions are given as supplementary information.\n(§2) The results were expressed as IC50 and selective index (SI=BuChE/AChE) values."}, "[2]": {"biological_target": "acetylcholinesterase from Electrophorus electricus (AChE) (Electrophorus electricus, UniProt O42275)", "sequence (O42275 24-633)": "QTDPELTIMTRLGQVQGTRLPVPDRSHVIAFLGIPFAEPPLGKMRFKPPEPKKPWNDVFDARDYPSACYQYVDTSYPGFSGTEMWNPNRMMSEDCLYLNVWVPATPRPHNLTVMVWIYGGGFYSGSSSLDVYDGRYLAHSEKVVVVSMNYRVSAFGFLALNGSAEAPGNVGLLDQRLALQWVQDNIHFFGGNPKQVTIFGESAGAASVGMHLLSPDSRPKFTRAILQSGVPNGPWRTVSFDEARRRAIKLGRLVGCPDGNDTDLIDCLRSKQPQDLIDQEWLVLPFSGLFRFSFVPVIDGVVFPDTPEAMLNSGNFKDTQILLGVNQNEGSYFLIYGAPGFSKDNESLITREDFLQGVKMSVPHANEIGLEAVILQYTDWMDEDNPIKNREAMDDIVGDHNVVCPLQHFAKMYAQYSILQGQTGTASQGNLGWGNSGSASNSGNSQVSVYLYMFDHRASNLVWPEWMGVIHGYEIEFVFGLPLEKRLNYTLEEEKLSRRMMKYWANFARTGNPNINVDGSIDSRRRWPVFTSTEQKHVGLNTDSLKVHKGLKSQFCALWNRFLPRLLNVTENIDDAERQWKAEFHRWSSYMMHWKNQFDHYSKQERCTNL", "experiment": "biochemical", "conditions": "for SI (BuChE/AChE): selective index = IC50 BuChE/AChE", "description": "as §1, §2"}, "[3]": {"biological_target": "α-glucosidase from Saccharomyces cerevisiae", "experiment": "α-Glucosidase inhibition", "format": "biochemical", "description": "as §1\nThe inhibitory properties of the compounds on α-glucosidase were investigated according to our previously reported methods. The results were expressed as IC50 values."}, "AChE [4]": {"biological_target": "T2, AChE (Electrophorus electricus, UniProt O42275)", "T2 sequence (O42275 24-633)": "as above", "experiment": "Compound-protein binding by UV-Vis spectroscopy", "conditions": "AChE 10 µM; BDPY-4 5, 10, 15 and 20 µM", "protocol": "To determine the structural change of AChE (10 µM) induced by BDPY-4, we measured the UV-Vis spectroscopy by adding the compound (5, 10, 15, and 20 µM) into AChE solution (10 µM). AChE has an absorption peak at 282 nm due to aromatic amino acids."}, "AChE [5]": {"biological_target": "T2, AChE", "experiment": "AChE inhibition mechanism (Lineweaver–Burk and Dixon plots)", "format": "biochemical", "conditions": "for Vmax: substrate acetylthiocholine iodide", "description": "Acetylthiocholine iodide was used as a substrate for AChE inhibition."}},
  "data": [
    {"smiles": "CC1=CC(/C=C/c2ccc(OCCCc3cccnc3)cc2)=[N+]2C1=C(c1ccc(OCCCc3ccncc3)cc1)c1c(C)cc(/C=C/c3ccc(OCCCc4cccnc4)cc3)n1[B-]2(F)F", "note": "[BDPY-5]", "values": [
      {"measurement": "IC50", "setting": "[1]", "result": "170 ± 4.33", "unit": "µM"},
      {"measurement": "IC50", "setting": "[2]", "result": "64.9 ± 3.89", "unit": "µM"},
      {"measurement": "SI (BuChE/AChE)", "setting": "[2]", "result": 2.62},
      {"measurement": "IC50", "setting": "[3]", "result": "106 ± 5.03", "unit": "µM"}
    ]},
    {"smiles": "CC1=CC(/C=C/c2ccc(OCCCc3ccncc3)cc2)=[N+]2C1=C(c1ccc(OCCCc3ccncc3)cc1)c1c(C)cc(/C=C/c3ccc(OCCCc4ccncc4)cc3)n1[B-]2(F)F", "note": "[BDPY-4]", "values": [
      {"measurement": "IC50", "setting": "[1]", "result": "150 ± 6.09", "unit": "µM"},
      {"measurement": "Change of AChE absorbance", "setting": "AChE [4]", "result": "hyperchromism"},
      {"measurement": "Shift of AChE absorption peak", "setting": "AChE [4]", "result": "shifted from 282 nm to 285 nm"},
      {"measurement": "IC50", "setting": "[2]", "result": "54.8 ± 4.51", "unit": "µM"},
      {"measurement": "SI (BuChE/AChE)", "setting": "[2]", "result": 2.74},
      {"measurement": "IC50", "setting": "[3]", "result": "95 ± 4.77", "unit": "µM"},
      {"measurement": "Vmax", "setting": "AChE [5]; 50 µM BDPY-4", "result": 196.08, "unit": "µM/min"},
      {"measurement": "Vmax", "setting": "AChE [5]; 100 µM BDPY-4", "result": 126.58, "unit": "µM/min"},
      {"measurement": "Ki", "setting": "AChE [5]; Dixon plot, read-out: Ki (inhibition constant)", "result": "57.2 ± 0.2", "unit": "µM"},
      {"measurement": "Inhibitory type", "setting": "AChE [5]; Lineweaver–Burk plot", "result": "noncompetitive inhibitor"}
    ]},
    {"smiles": "CC1=CC(C)=[N+]2C1=C(c1ccc(OCCCc3ccncc3)cc1)c1c(C)cc(C)n1[B-]2(F)F", "note": "[BDPY-2]", "values": [
      {"measurement": "IC50", "setting": "[1]", "result": "185 ± 5.49", "unit": "µM"},
      {"measurement": "IC50", "setting": "[2]", "result": "72.5 ± 2.95", "unit": "µM"},
      {"measurement": "SI (BuChE/AChE)", "setting": "[2]", "result": 2.55},
      {"measurement": "IC50", "setting": "[3]", "result": "219 ± 8.71", "unit": "µM"}
    ]}
  ]
}
